The structures appear in SMILES notation.

The data set in a line: pKa value was determined. It counts as physicochemical.

On to `CC(=O)O[C@H]1C[C@H](n2cc(C)c(=O)[nH]c2=O)O[C@@H]1COP(=O)(OC[C@H]1O[C@@H](n2cc(C)c(=O)[nH]c2=O)C[C@@H]1OC(C)=O)Oc1ccc(Cl)cc1`, for which the pKa is 9.38.

Take `CC(=O)O[C@H]1C[C@H](n2cc(C)c(=O)[nH]c2=O)O[C@@H]1COP(=O)(OC[C@H]1O[C@@H](n2cc(C)c(=O)[nH]c2=O)C[C@@H]1OC(C)=O)Oc1ccc(S(C)(=O)=O)cc1`: the pKa came to 7.83.

`CC(=O)O[C@H]1C[C@H](n2cc(C)c(=O)[nH]c2=O)O[C@@H]1COP(=O)(OC[C@H]1O[C@@H](n2cc(C)c(=O)[nH]c2=O)C[C@@H]1OC(C)=O)Oc1ccc([N+](=O)[O-])cc1` yielded a pKa of 7.16.

The compound `CSc1ccc(OP(=O)(OC[C@H]2O[C@@H](n3cc(C)c(=O)[nH]c3=O)C[C@@H]2OC(C)=O)OC[C@H]2O[C@@H](n3cc(C)c(=O)[nH]c3=O)C[C@@H]2OC(C)=O)cc1` gave a pKa of 9.53.

A word on the pKa: it is the pH at which an ionisable group is half protonated. A low value points to a group that gives up its proton readily.

These data come from ChEMBL document CHEMBL1124765, “Synthesis and biological properties of novel phosphotriesters: a new approach to the introduction of biologically active nucleotides into cells” (J Med Chem, 1990).
